Laboratory results from patent US20150343016A1, “CHEMICAL ENTITIES AND THERAPEUTIC USES THEREOF” (The Regents of the University of Colorado, a body corporate, priority 2010, published 2015).

How the values were obtained:
[1] = system: p53 mutant Drosophila larvae; assay: Drosophila larval survival to adulthood (eclosion), drug with and without IR, p53 mutants; format: in vivo; settings: p53 mutants; for eclosion expected if the two treatments produced an additive effect: Bouvardin and IR
Description: To validate the identification of Bouvardin from the primary screen, the effect of this molecule on Drosophila larvae alone or in combination with radiation were assessed (FIG. 12). The screen was performed using irradiated mutant larvae. Hits from the screen were defined as those that reduced the survival of IRRADIATED larvae compared to the population of drugs being tested (approximately 80 molecules at a time) or compared to DMSO controls in the re-test. A hit could therefore act by enhancing the effect of radiation, or by simply killing larvae as a single agent, or both. To distinguish among these possibilities, hits from the screen were re-tested against larvae with and without irradiation.
In FIG. 12 survival after each treatment is expressed as the fraction of animals that emerged (“eclosed”) as viable adults. The averages have been normalized to the average fraction eclosed in no IR/drug control for the respective genotype. Error bars extend beyond fractional survival of 1.0 simply because of normalization. (A-C) Fraction eclosed for WT and grp and p53 mutants at 16 uM of Bouvardin, with and without IR. The data are averages of 3-8 biological replicates per sample. Dotted line on each graph denotes expected ‘fraction eclosed’ if drug and IR act additively. IR doses were 4000R for WT and grp and 3000R for p53 because of the higher radiation sensitivity of the latter. (D) Fraction eclosed for Minute mutants and yw controls after exposure to 0 (−IR) and 2000R (+IR) of X-rays. N ranged from 86-207 per genotype per treatment, in 3 biological replicates per sample. *=p<0.01; **=<0.001. 100R=1Gy. Error bar=1 standard deviation.
The activity of Bouvardin in Drosophila alone or in combination with ionizing radiation (IR) was assessed. Drug concentrations of 10-20 μM were used to approximate the conditions of the original screen. Third instar larvae were irradiated and cultured on medium containing drug. The survival of larvae was quantified 10 days later by measuring the rate of eclosion into adulthood. […] For example, IR alone reduces the eclosion of p53 mutants to 0.63±0.05 and 10 μM of drug reduces it to 0.82±0.15. The combination of Bouvardin and IR reduces eclosion to 0.49, nearly the exact number expected (0.63±0.05×0.82±0.15=0.51±0.10) if the two treatments produced an additive effect. The expected eclosion for additive effect of drug and radiation are denoted with a white dotted line in each graph.
Wild type flies were of the Sevelin stock. Mutants have been described before. p535A-1-4 results from targeted deletion of the gene, and is maintained and used as homogygotes. grpl (Chk1 mutants) results from a p-element insertion and is a genetic null. Homozygotes of the latter were identified by the lack of GFP marker on the balancer chromosome. Minute mutants were of the genotypes y[1]w[*]; P[w[+mC]=lacW]RpS131/CyO and P[lacW]RpL36G0471 w67c23/FM7a. Because Minute mutants were in yw or w background, y1w1 (Bloomington stock #1495) was used as ‘wild type’ control in these experiments.
Feeding stage 3rd instar larvae were irradiated as previously described (2). Briefly, 120 hr old larvae were rinsed to remove food and passed through sizing sieves to obtain animals of uniform size. Larvae were placed in a Petri dish and irradiated using a TORREX X-ray generator, set at 115 kV and 5 mA (producing 2.4 Rads/sec or 1.44 Gy/min) Irradiated larvae were then cultured on cornmeal-agar media (2) containing drug or DMSO carrier. In all experiments using human cells, cells in 96-well plates were irradiated with a RS2000 Biological Irradiator (Rad Source Technologies, Inc.) delivering 1 Gy/min.

FaDu cells = assay: MTT assay, Bouvardin with ionizing radiation, FaDu (same-day treatment); format: cell-based, human
Description: “Combination Index” computation. Combination Indices were calculated using CalcuSyn software (Biosoft), which uses the method of Chou and Talalay. This method first computes drug-induced effect using the Hill Equation: where E is the measured effect; C is the drug concentration; Emax is the full range of drug effect, usually at or near 100%; IC50 is the drug concentration producing the median effect of 50%; and n is the curve shape parameter describing the steepness of the concentration-effect relationship. The Chou and Talalay method then linearizes the Hill Equation by logarithmic transformation as: where fu is the fraction of cells left unaffected after drug exposure, fa is the fraction of cells affected by the exposure, C is the drug concentration used, Cm is the concentration to achieve the median effect, and n is the curve shape parameter. Cm and n are equivalent to IC50 and n, respectively, in the Hill Equation. The values of n (obtained from the slope), nlog(Cm) (obtained from the absolute value of the intercept), and, therefore, Cm are obtained by plotting log(fu−1−1) versus log(C). These numbers are then used to compute the Combination Index (CI) according to the formula: CI=(D)1/(Dx)1+(D)2/(Dx)2 (26). (Dx)1 and (Dx)2 are the doses required to achieve a given effect level for each treatment, i.e. a specified value of Fraction Affected or Fa. (D)1 and (D)2 are the doses of each treatment in a given combination which gives the same Fa.
For FIG. 19 MTT assays were used to determine the effect of Bouvardin (concentrations in uM) in combination with ionizing radiation (in Gy). The data from same-day treatment of IR and Bouvardin are shown, for comparison with taxol-Bouvardin combination that were also applied on the same day. In general, CI values were lower for FaDu cells than for Det562 cells in two separate experiments (only one set is shown). On Det562 cells, CI values were about 1 for most combinations. CI value for Det562 cells at 0.001 uM/1Gy and at >0.06 uM are not included in the graph because the values are >10 and would have made smaller values harder to see. On FaDu cells, CI values were below 1 at concentrations of 0.03 or lower, were about 1 for 0.06 uM drug, and were over 1 at higher concentrations.
The growth inhibitory effects of Bouvardin with ionizing radiation (IR) were evaluated using a modified tetrazolium salt (MTT) assay. In the MTT assay, 1,000 to 2,000 viable cells were plated in 100 uL of growth medium in 96-well plates (Corning, Ithaca, N.Y.). Following an overnight incubation, drug was added in varying concentrations and the plates were irradiated on the same day (co-treatment) or 24 hr later (pre-treatment) and incubated for 6 to 7 days. The tetrazolium salt was added at a concentration of 0.4 mg/mL to each well following the 6- to 7-day treatment. The plates were incubated with the salt for 4 hours at 37° C. At 4 hours, the medium was aspirated off, leaving the dark blue formazan product at the bottom of the wells. The reduced MTT product was solubilized by adding […] of 0.2 N HCl in 75% isopropanol, 23% MilliQ water to each well. Thorough mixing was done using a Titertek multichannel pipetman. The absorbency of each well was measured using an automated plate reader (Molecular Devices, Sunnyvale, Calif.). All experiments were done in triplicate.

COc1ccc(C[C@H]2C(=O)N[C@H](C)C(=O)N(C)[C@@H]3C(=O)N(C)[C@@H](Cc4ccc(O)c(c4)Oc4ccc(cc4)[C@H]3O)C(=O)N[C@@H](C)C(=O)N[C@H](C)C(=O)N2C)cc1 (stereo in doubt) [Bouvardin, bouvardin]
manner in which drug and radiation act together [1]: additive manner
eclosion (fraction eclosed, normalized to no IR/drug control) ([1]; 10 μM of drug alone): 0.82±0.15
eclosion ([1]; 10 mM of drug alone): 0.82
eclosion expected if the two treatments produced an additive effect [1]: 0.51±0.10
eclosion expected if the two treatments produced an additive effect ([1]; listed as bouvardin): 0.50
eclosion (fraction eclosed, normalized to no IR/drug control) ([1]; combination of Bouvardin and IR): 0.49
effect on the killing effect of radiation (+IR versus +both) ([1]; drug 10-20 μM): increased the killing effect of radiation in a statistically significant manner
Bouvardin concentrations at which synergy was seen when combined with radiation (FaDu cells; Det562 and FaDu (FIG. 19)): lower than 0.06 μM
interaction of Bouvardin with IR (FaDu cells; FaDu): a wide range of effects, synergistic to antagonistic
CI values, Bouvardin with IR (FaDu cells; FaDu, 0.06 uM drug): about 1
CI values, Bouvardin with IR (FaDu cells; FaDu, concentrations higher than 0.06 uM): over 1
CI values, Bouvardin with IR (FaDu cells; FaDu, concentrations of 0.03 or lower): below 1
